Measured values from patent US20210380595A1 (ARAXES PHARMA LLC, priority 2018, published 2021).

Target: T1, KRAS G12C 1-169, his-tagged protein, GDP-loaded (Homo sapiens, UniProt P01116, G12C)
T1 construct: KRAS G12C 1-169, his-tagged protein, GDP-loaded
Assay: Biochemical assay: covalent modification of KRAS G12C measured by mass spectrometry (RapidFire/TOF or Q-Exactive); note: time not given here
Type: binding
Procedure, shortened: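 GDP-loaded KRAS G12C 1-169 (his-tagged, 2 μM or 0.5 μM in 20 mM Hepes, 150 mM NaCl, 1 mM MgCl2) reacted with compound at 32 μM or 8 μM final, then quenched with formic acid. Intact-protein LC-MS (RapidFire/TOF or Q-Exactive) with charge-envelope deconvolution; % modification from modified vs unmodified peak intensities.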

[1] = tested at a concentration of 8 μM

Structure (SMILES): C=CC(=O)N1CC2(CCN(c3cccc(-c4c(C)ccc5cnn(C)c45)c3F)C2)C1 [Compound I-3, 1-(6-(3-(1,6-dimethyl-1H-indazol-7-yl)-2-fluorophenyl)-2,6-diazaspiro[3.4]octan-2-yl)prop-2-en-1-one]
- Bind % (tested at 32 μM): + (+ indicates binding activity greater than 0% and up to 50%)

Structure (SMILES): C=CC(=O)N1CC2(CCN(c3cc(OCc4ccccn4)cc(-c4c(C)ccc5[nH]nc(C)c45)c3C#N)C2)C1 [Compound I-71, 2-(2-acryloyl-2,6-diazaspiro[3.4]octan-6-yl)-6-(3,5-dimethyl-1H-indazol-4-yl)-4-(pyridin-2-ylmethoxy) benzonitrile]
- Bind % [1]: +++ (+++ indicates binding activity greater than 75%)

Structure (SMILES): C=CC(=O)N1CC2(CCN(c3cc(N4CC(N(C)C)C4)cc(-c4c(C)ccc5[nH]ncc45)c3C#N)C2)C1 [Compound I-26, 2-(2-acryloyl-2,6-diazaspiro[3.4]octan-6-yl)-4-(3-(dimethylamino)azetidin-1-yl)-6-(5-methyl-1H-indazol-4-yl)benzonitrile]
- Bind % [1]: +++ (+++ indicates binding activity greater than 75%)

Structure (SMILES): C=CC(=O)N1CC2(CCN(c3cc(N4CCOCC4)cc(-c4c(C)ccc5[nH]ncc45)c3C#N)C2)C1 [Compound I-7, 2-(2-acryloyl-2,6-diazaspiro[3.4]octan-6-yl)-6-(5-methyl-1H-indazol-4-yl)-4-morpholino-benzonitrile]
- Bind % (tested at 32 μM): +++ (+++ indicates binding activity greater than 75%)

Structure (SMILES): C=CC(=O)N1CC2(CCN(c3ccc(OCCCN(C)C)c(-c4c(C)ccc5[nH]ncc45)c3C#N)CC2)C1 [Compound I-83, 6-(2-acryloyl-2,7-diazaspiro[3.5]nonan-7-yl)-3-(3-(dimethylamino)propoxy)-2-(5-methyl-1H-indazol-4-yl)benzonitrile]
- Bind % (tested at 32 μM): + (+ indicates binding activity greater than 0% and up to 50%)

Structure (SMILES): Cc1ccc2[nH]ncc2c1-c1c(F)ccc(N2CCC3(CN(C(=O)/C=C/CN(C)C)C3)C2)c1C#N [Compound I-46, (E)-6-(2-(4-(dimethylamino)but-2-enoyl)-2,6-diazaspiro[3.4]octan-6-yl)-3-fluoro-2-(5-methyl-1H-indazol-4-yl)benzonitrile]
- Bind % (tested at 32 μM): + (+ indicates binding activity greater than 0% and up to 50%)

Structure (SMILES): C=CC(=O)N1CCC2(CCN(c3cc(OCc4ccccn4)cc(-c4c(C)ccc5[nH]ncc45)c3C#N)CC2)C1 [Compound I-52, 2-(2-acryloyl-2,8-diazaspiro[4.5]decan-8-yl)-6-(5-methyl-1H-indazol-4-yl)-4-(pyridin-2-ylmethoxy) benzonitrile]
- Bind % (tested at 32 μM): + (+ indicates binding activity greater than 0% and up to 50%)

Structure (SMILES): C=CC(=O)N1CC2(CCN(c3cc(OCCN4CCCC4)c(F)c(-c4c(C)ccc5[nH]ncc45)c3C#N)CC2)C1 [Compound I-135, 6-(2-acryloyl-2,7-diazaspiro[3.5]nonan-7-yl)-3-fluoro-2-(5-methyl-1H-indazol-4-yl)-4-(2-(pyrrolidin-1-yl)ethoxy) benzonitrile]
- Bind % (tested at 32 μM): + (+ indicates binding activity greater than 0% and up to 50%)

Structure (SMILES): C=CC(=O)N1CC2(CCN(c3cc(N4CCC(CN(C)C)CC4)cc(-c4c(C)ccc5[nH]ncc45)c3C#N)C2)C1 [Compound I-32, 2-(2-acryloyl-2,6-diazaspiro[3.4]octan-6-yl)-4-(4-((dimethylamino)methyl)piperidin-1-yl)-6-(5-methyl-1H-indazol-4-yl)benzonitrile]
- Bind % [1]: +++ (+++ indicates binding activity greater than 75%)

Structure (SMILES): C=CC(=O)N1CC2(CCN(c3ccc(C)c(-c4c(C)ccc5[nH]ncc45)c3C#N)C2)C1 [Compound I-25, 6-(2-acryloyl-2,6-diazaspiro[3.4]octan-6-yl)-3-methyl-2-(5-methyl-1H-indazol-4-yl)benzonitrile]
- Bind % (tested at 32 μM): ++ (++ indicates binding activity from 50 to 75%)

Structure (SMILES): C=CC(=O)N1CC2(CCN(c3cc(OCc4ccccn4)cc(-c4c(C)ccc5[nH]ncc45)c3C#N)C2)C1C (centres unmarked) [Compound I-129, 2-(2-acryloyl-1-methyl-2,6-diazaspiro[3.4]octan-6-yl)-6-(5-methyl-1H-indazol-4-yl)-4-(pyridin-2-ylmethoxy) benzonitrile]
- Bind % [1]: ++ (++ indicates binding activity from 50 to 75%)

Structure (SMILES): C=CC(=O)N1CCC2(CCN(c3cccc(-c4c(C)ccc5[nH]ncc45)c3C#N)C2)C1 (centres unmarked) [Compound I-22, 2-(7-acryloyl-2,7-diazaspiro[4.4]nonan-2-yl)-6-(5-methyl-1H-indazol-4-yl)benzonitrile]
- Bind % (tested at 32 μM): + (+ indicates binding activity greater than 0% and up to 50%)

Structure (SMILES): C=CC(=O)N1CC2(CCN(c3cc(OCCCN(C)C)c(Cl)c(-c4c(C)ccc5[nH]ncc45)c3C#N)CC2)C1 [Compound I-125, 6-(2-acryloyl-2,7-diazaspiro[3.5]nonan-7-yl)-3-chloro-4-(3-(dimethylamino)propoxy)-2-(5-methyl-1H-indazol-4-yl)benzonitrile]
- Bind % (tested at 32 μM): ++ (++ indicates binding activity from 50 to 75%)

Structure (SMILES): CC#CC(=O)N1CCCC2(CCN(c3cc(OCc4ccccn4)cc(-c4c(C)ccc5[nH]ncc45)c3C#N)C2)C1 (centres unmarked) [Compound I-74, 2-(7-(but-2-ynoyl)-2,7-diazaspiro[4.5]decan-2-yl)-6-(5-methyl-1H-indazol-4-yl)-4-(pyridin-2-ylmethoxy) benzonitrile]
- Bind % (tested at 32 μM): + (+ indicates binding activity greater than 0% and up to 50%)

Structure (SMILES): C=CC(=O)N1CC2(C1)CN(c1cc(OCc3ccccn3)cc(-c3c(C)ccc4[nH]ncc34)c1C#N)C2 [Compound I-72, 2-(6-acryloyl-2,6-diazaspiro[3.3]heptan-2-yl)-6-(5-methyl-1H-indazol-4-yl)-4-(pyridin-2-ylmethoxy) benzonitrile]
- Bind % [1]: +++ (+++ indicates binding activity greater than 75%)

Structure (SMILES): C=CC(=O)N1CC2(CCN(c3cc(N4CCC(N5CCN(C)[C@@H](C)C5)CC4)cc(-c4c(C)ccc5[nH]ncc45)c3C#N)CC2)C1 [Compound I-82, 2-(2-acryloyl-2,7-diazaspiro[3.5]nonan-7-yl)-4-(4-((S)-3,4-dimethyl-piperazin-1-yl)piperidin-1-yl)-6-(5-methyl-1H-indazol-4-yl)benzonitrile]
- Bind % (tested at 32 μM): + (+ indicates binding activity greater than 0% and up to 50%)

Structure (SMILES): C=CC(=O)N1CC2(CCN(c3cc(N4CCCC(N(C)C)C4)cc(-c4c(C)ccc5[nH]ncc45)c3C#N)C2)C1 (centres unmarked) [Compound I-33, 2-(2-acryloyl-2,6-diazaspiro[3.4]octan-6-yl)-4-(3-(dimethylamino)piperidin-1-yl)-6-(5-methyl-1H-indazol-4-yl)benzonitrile]
- Bind % [1]: +++ (+++ indicates binding activity greater than 75%)

Structure (SMILES): C=CC(=O)N1CC2(CCN(c3cc(OC[C@@H]4CCCN4C)cc(-c4c(C)ccc5cnn(C)c45)c3C#N)C2)C1 [Compound I-40, 2-(2-acryloyl-2,6-diazaspiro[3.4]octan-6-yl)-6-(1,6-dimethyl-1H-indazol-7-yl)-4-(((S)-1-methylpyrrolidin-2-yl)methoxy) benzonitrile]
- Bind % [1]: +++ (+++ indicates binding activity greater than 75%)

Structure (SMILES): C=CC(=O)N1CCC2(CCN(c3cccc(-c4c(O)cccc4F)c3C#N)C2)C1 (centres unmarked) [Compound I-6, 3-(7-acryloyl-2,7-diazaspiro[4.4]nonan-2-yl)-2′-fluoro-6′-hydroxy-[1,1′-biphenyl]-2-carbonitrile]
- Bind % (tested at 32 μM): + (+ indicates binding activity greater than 0% and up to 50%)

Structure (SMILES): C=CC(=O)N1CC2(CCN(c3ccc(F)c(-c4c(C)ccc5[nH]ncc45)c3C#N)CC2)C1 (atropisomer, axis not shown) [Compound I-140, (R)-6-(2-acryloyl-2,7-diazaspiro[3.5]nonan-7-yl)-3-fluoro-2-(5-methyl-1H-indazol-4-yl)benzonitrile]
- Bind % (tested at 32 μM): + (+ indicates binding activity greater than 0% and up to 50%)

Structure (SMILES): C=CC(=O)N1CC2(CCN(c3ccc(F)c(-c4c(C)ccc5[nH]ncc45)c3C#N)CC2)C1 [Compound I-106, 6-(2-acryloyl-2,7-diazaspiro[3.5]nonan-7-yl)-3-fluoro-2-(5-methyl-1H-indazol-4-yl)benzonitrile]
- Bind % (tested at 32 μM): + (+ indicates binding activity greater than 0% and up to 50%)

Structure (SMILES): C=CC(=O)N1CCC2(CC1)CN(c1cccc(-c3c(C)ccc4cnn(C)c34)c1C#N)C2 [Compound I-15, 2-(7-acryloyl-2,7-diazaspiro[3.5]nonan-2-yl)-6-(1,6-dimethyl-1H-indazol-7-yl)benzonitrile]
- Bind % (tested at 32 μM): + (+ indicates binding activity greater than 0% and up to 50%)

Structure (SMILES): C=CC(=O)N1CC2(CCN(c3ccc(C#N)c(-c4c(C)ccc5[nH]ncc45)c3)CC2)C1 [Compound I-105, 4-(2-acryloyl-2,7-diazaspiro[3.5]nonan-7-yl)-2-(5-methyl-1H-indazol-4-yl)benzonitrile]
- Bind % (tested at 32 μM): + (+ indicates binding activity greater than 0% and up to 50%)

Structure (SMILES): CC#CC(=O)N1CC2(CCN(c3cccc(-c4c(C)ccc5[nH]ncc45)c3C#N)C2)C1 [Compound I-4, 2-(2-(but-2-ynoyl)-2,6-diazaspiro[3.4]octan-6-yl)-6-(5-methyl-1H-indazol-4-yl)benzonitrile]
- Bind % (tested at 32 μM): + (+ indicates binding activity greater than 0% and up to 50%)

Structure (SMILES): C=CC(=O)N1CC2(CCN(c3cc(N(C)CCN4CCCC4)c(F)c(-c4c(C)ccc5[nH]ncc45)c3C#N)CC2)C1 [Compound I-131, 6-(2-acryloyl-2,7-diazaspiro[3.5]nonan-7-yl)-3-fluoro-4-(methyl(2-(pyrrolidin-1-yl)ethyl)amino)-2-(5-methyl-1H-indazol-4-yl)benzonitrile]
- Bind % (tested at 32 μM): + (+ indicates binding activity greater than 0% and up to 50%)

Structure (SMILES): C=CC(=O)N1CCC2(C1)CN(c1ccc(F)c(-c3c(C)ccc4[nH]ncc34)c1C#N)C2 [Compound I-95, 6-(6-acryloyl-2,6-diazaspiro[3.4]octan-2-yl)-3-fluoro-2-(5-methyl-1H-indazol-4-yl)benzonitrile]
- Bind % (tested at 32 μM): + (+ indicates binding activity greater than 0% and up to 50%)
